Laboratory results: ChEMBL document CHEMBL1201862, “PubChem BioAssay data set” (2004)
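96-well plates; 48 h exposure; 5 concentrations. Endpoints by linear interpolation between flanking doses. Not reached: highest tested concentration assigned. At the GI50, growth is halved.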 Activity calls are given as the source filed them. No stated cut-off is given here; in the data, active = GI50 up to about 1.1 µM and inactive = higher.

Tests used:
Assay in all cases: DTP human tumour cell line panel, 48 h
[1] = tested on: HCC 2998
[2] = tested on: HCT-116
[3] = tested on: HL-60
[4] = tested on: HOP-92
[5] = tested on: HT-29
[6] = tested on: KM12
[7] = tested on: MCF7
[8] = tested on: MDA-MB-231
[9] = tested on: MOLT-4
[10] = tested on: Malme-3M
[11] = tested on: NCI-H522
[12] = tested on: NCI/ADR-RES
[13] = tested on: OVCAR-5
[14] = tested on: PC-3
[15] = tested on: RXF 393
[16] = tested on: SF-268
[17] = tested on: SK-MEL-28
[18] = tested on: SN12C
[19] = tested on: SW-620
[20] = tested on: HOP-62

Measured: GI50

C=C1C(=O)OC2/C=C(\C)CC/C=C(\C)CC(OC(=O)/C(=C/CO)CO)[C@@H]12 (some centres not stated)
inactive: [1] 18.7 µM | [2] 3.27 µM | [3] 2.72 µM | [4] 4.93 µM | [5] 7.41 µM | [6] 18.1 µM | [7] 4.46 µM | [8] 13.7 µM | [9] 2.14 µM | [10] 2.38 µM | [11] 1.75 µM | [12] 20 µM | [13] 17.3 µM | [14] 16.9 µM | [15] 7.19 µM | [16] 20.7 µM | [17] 15 µM | [18] 13.6 µM | [19] 1.69 µM

O=C(O)CCSCc1ccc(I)cc1
inactive: [1] > 100 µM | [2] > 100 µM | [3] > 100 µM | [20] > 100 µM | [4] > 100 µM | [5] > 100 µM | [6] > 100 µM | [7] > 100 µM | [8] > 100 µM | [9] > 100 µM | [10] > 100 µM | [11] > 100 µM | [12] > 100 µM | [13] > 100 µM | [14] > 100 µM | [15] 96.4 µM | [16] > 100 µM | [17] > 100 µM | [18] > 100 µM | [19] > 100 µM

O=C(O)C1C2c3ccccc3C(c3ccccc32)C1C(=O)NCC1CC1 (configuration not stated)
inactive: [1] 13.5 µM | [2] 47.4 µM | [3] 24.8 µM | [20] 68.2 µM | [4] 70.5 µM | [5] 71.6 µM | [6] 55.3 µM | [7] 52.1 µM | [8] > 100 µM | [9] 29.9 µM | [10] > 100 µM | [11] 29.9 µM | [12] 32.4 µM | [13] > 100 µM | [14] 53.7 µM | [15] 97.5 µM | [16] 94.4 µM | [17] > 100 µM | [18] 55.2 µM | [19] 50.2 µM

CCCn1cnc2c(/N=N/O)ncnc21
inactive: [1] > 100 µM | [2] > 100 µM | [3] > 100 µM | [20] > 100 µM | [4] > 100 µM | [5] > 100 µM | [6] > 100 µM | [7] > 100 µM | [8] > 100 µM | [9] > 100 µM | [10] > 100 µM | [11] > 100 µM | [12] > 100 µM | [13] > 100 µM | [14] > 100 µM | [15] > 100 µM | [16] > 100 µM | [17] > 100 µM | [19] > 100 µM

COC1=C2C[C@@H](C)C[C@@H](OC)[C@@H](O)[C@H](C)/C=C(\C)[C@@H](OC(N)=O)[C@H](OC)/C=C\C=C(/C)C(=O)NC(=CC1=O)C2=O
inactive: [20] 3.38 µM | [12] 10.1 µM | [13] 6.87 µM
active: [2] 0.0419 µM | [3] 0.0132 µM | [4] 0.112 µM | [5] 0.0143 µM | [6] 0.455 µM | [7] 0.0198 µM | [8] 0.0421 µM | [9] 0.0199 µM | [10] 0.044 µM | [11] 0.036 µM | [14] 0.122 µM | [15] 0.0818 µM | [16] 1.01 µM | [17] 0.113 µM | [18] 0.0405 µM | [19] 0.0127 µM
